Legend:
p-H3 in HCT116 cells = assay: Histone phosphorylation (p-H3) assay; format: cell-based; conditions: Homo sapiens, HCT-116; HCT116 cells, 4 hr incubation; read-out: p-H3 IC50
In short: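 HCT116 cells (2.5×10^4/well, attached overnight) treated 4 h with 8-point 3-fold compound dilutions at 0.5% DMSO. Lysates dot-blotted onto nitrocellulose and probed for p-H3 with β-actin on the same membrane, fluorescent secondary antibodies, Odyssey scan; duplicate wells.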

VEGFR2 kinase = biological target: T1, VEGFR2 kinase (Homo sapiens, UniProt P35968); assay: VEGFR2 kinase assay; format: biochemical; conditions: 6 μM ATP, 1 mM MnCl2; rounded to 1 significant figure
T1 construct: purchased Cell Signaling Technology
T1 sequence (P35968 20-1356): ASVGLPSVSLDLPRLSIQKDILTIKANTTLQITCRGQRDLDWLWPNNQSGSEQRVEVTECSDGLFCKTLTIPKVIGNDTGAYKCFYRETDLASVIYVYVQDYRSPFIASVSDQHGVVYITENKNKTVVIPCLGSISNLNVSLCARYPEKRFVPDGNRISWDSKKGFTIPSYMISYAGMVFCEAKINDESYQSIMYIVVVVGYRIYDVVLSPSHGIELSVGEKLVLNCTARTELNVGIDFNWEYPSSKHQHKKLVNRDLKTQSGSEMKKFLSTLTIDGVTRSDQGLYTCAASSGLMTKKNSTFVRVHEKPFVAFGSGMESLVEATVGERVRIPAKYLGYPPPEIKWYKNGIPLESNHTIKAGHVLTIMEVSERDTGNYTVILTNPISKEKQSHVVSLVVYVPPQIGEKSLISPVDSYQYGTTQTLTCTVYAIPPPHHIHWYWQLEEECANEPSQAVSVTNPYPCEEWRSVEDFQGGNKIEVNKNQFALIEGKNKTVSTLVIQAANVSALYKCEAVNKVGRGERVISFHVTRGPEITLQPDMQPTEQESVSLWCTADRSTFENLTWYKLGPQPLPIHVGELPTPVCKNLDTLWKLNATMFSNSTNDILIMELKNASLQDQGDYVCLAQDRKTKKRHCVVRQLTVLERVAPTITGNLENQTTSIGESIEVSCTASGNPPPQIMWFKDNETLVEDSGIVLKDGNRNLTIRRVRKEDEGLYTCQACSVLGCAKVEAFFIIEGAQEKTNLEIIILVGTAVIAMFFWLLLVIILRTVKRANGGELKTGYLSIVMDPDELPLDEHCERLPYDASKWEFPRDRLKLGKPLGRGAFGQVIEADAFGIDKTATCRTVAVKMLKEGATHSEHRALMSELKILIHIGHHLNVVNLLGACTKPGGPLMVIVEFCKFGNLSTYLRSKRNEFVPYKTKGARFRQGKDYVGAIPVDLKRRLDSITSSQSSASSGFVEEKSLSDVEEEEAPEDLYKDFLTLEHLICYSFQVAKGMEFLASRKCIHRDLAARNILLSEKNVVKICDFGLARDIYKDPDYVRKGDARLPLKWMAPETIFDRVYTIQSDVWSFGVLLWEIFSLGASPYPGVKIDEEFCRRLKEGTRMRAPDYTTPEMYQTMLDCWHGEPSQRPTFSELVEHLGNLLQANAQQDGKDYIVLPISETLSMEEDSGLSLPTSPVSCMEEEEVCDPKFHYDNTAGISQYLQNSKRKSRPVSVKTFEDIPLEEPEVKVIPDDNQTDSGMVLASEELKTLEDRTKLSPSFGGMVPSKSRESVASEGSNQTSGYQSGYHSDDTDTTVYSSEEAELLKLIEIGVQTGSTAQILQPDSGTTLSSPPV
In short: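 VEGFR2 phosphorylates CSKtide with 6 μM ATP and 1 mM MnCl2 for 1 hr, otherwise following the Aurora A kinase protocol. Detection by IMAP fluorescence polarization, binding reagent diluted 1:1200 in 1:1 binding buffer A/B. Run in duplicate with solvent control.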

Aurora A kinase = biological target: T2, Aurora A kinase (Homo sapiens, UniProt O14965); assay: Aurora A kinase assay (IMAP fluorescence polarization); format: biochemical; conditions: 10 μM ATP; rounded to 1 significant figure; read-out: Aur-A IC50
T2 construct: purchased Upstate Biotech
T2 sequence (O14965 1-403): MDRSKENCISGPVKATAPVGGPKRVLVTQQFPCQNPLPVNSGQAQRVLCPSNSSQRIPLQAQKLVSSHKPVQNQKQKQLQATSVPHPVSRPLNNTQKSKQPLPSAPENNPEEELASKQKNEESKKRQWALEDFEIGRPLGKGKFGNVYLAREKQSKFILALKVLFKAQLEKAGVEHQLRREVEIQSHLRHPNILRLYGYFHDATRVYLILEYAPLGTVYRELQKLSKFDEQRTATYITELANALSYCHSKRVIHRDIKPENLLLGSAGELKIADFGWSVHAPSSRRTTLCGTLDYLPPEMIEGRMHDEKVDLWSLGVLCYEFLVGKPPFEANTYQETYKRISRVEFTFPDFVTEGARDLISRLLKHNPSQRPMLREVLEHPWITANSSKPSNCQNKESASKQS
In short: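 Compounds (eight 3-fold dilutions, 2.5% DMSO final) were preincubated 5 min at room temperature with Aurora A kinase in buffer with 1 mM DTT. Reaction with 100 nM fluorescein-PKAtide and 10 μM ATP ran 45 min at room temperature, then was stopped with IMAP binding reagent; fluorescence polarization was read after 30 min.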

Aurora B kinase = biological target: T3, Aurora B kinase (Homo sapiens, UniProt Q96GD4); assay: Aurora B kinase assay (IMAP fluorescence polarization); format: biochemical; conditions: 10 μM ATP; rounded to 1 significant figure; read-out: Aur-B IC50
T3 construct: purchased BPS Bioscience
T3 sequence (Q96GD4 whole entry): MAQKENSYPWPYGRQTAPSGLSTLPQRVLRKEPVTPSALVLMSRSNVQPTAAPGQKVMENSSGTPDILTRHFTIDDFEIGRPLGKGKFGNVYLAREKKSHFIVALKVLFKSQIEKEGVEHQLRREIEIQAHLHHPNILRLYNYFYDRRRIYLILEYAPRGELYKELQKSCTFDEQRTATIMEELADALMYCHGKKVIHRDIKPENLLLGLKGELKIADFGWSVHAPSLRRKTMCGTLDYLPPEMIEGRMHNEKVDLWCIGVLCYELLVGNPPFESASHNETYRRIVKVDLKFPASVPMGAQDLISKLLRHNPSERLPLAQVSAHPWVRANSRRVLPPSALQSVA
In short: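 Reaction started with 100 nM fluorescein-labelled PKAtide and 10 μM ATP, run 45 min at room temperature, then stopped with IMAP binding reagent (1:400). After 30 min shaking at room temperature, fluorescence polarization read; run in duplicate with solvent control.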

[1] = tested on: HL60 (human promyelocytic leukemia) cells; assay: HL60 cytotoxicity assay (CellTiter-Glo); format: cell-based; conditions: HL-60, 72 h, cytotoxicity, three days culture, read-out: HL60 IC50
From the text: (§1) The cell lines HL60 (human promyelocytic leukemia) and HCT116 (human colon carcinoma) were obtained from the American Type Culture Collection, Manassas, Va., U.S.A., and HUVEC-2 (human umbilical vein endothelial cells) from BD Biosciences, Bedford, Mass., U.S.A. Aurora A kinase was obtained from Upstate Biotech, Billerica, Mass., U.S.A.; Aurora B kinase from BPS Bioscience, San Diego, Calif., U.S.A.; and VEGFR2 kinase from Cell Signaling Technology, Danvers, Mass., U.S.A. The IMAP FP Screening Express kit was obtained from Molecular Devices, Sunnyvale, Calif., U.S.A.; the CellTiter-Glo assay kit from Promega Corporation, Madison, Wis., U.S.A.; and the Cellular DNA Cytometric Analysis Reagent Kit and BrdU labeling and detection kit from Roche Diagnostics Corporation, Indianapolis, Ind., U.S.A. All products were used in accordance with manufacturer's directions. Kinase inhibition assays and the histone phosphorylation (p-H3) assay were conducted in duplicate, and the cytotoxicity and HUVEC proliferation assays were conducted in triplicate, in each case with solvent control.
Log-phase cells were trypsinized, collected by centrifugation, and resuspended in a small volume of fresh medium, and the density of viable cells was determined following Trypan Blue staining. Cells were diluted in fresh media (1×10^4 cells/mL for HL60 and 4×10^4 cells/mL for HCT116 cells), the test compounds (concentrations between 0.1 μM and 200 μM, dissolved in DMSO, 50 μL) added immediately after dilution to achieve a final DMSO concentration of 0.5%, then the suspensions added at 150 μL/well to 96-well plates, and incubated overnight to allow attachment in the case of adherent cells. The cells were cultured for three days (about three doubling times). The cells were then collected by centrifugation, and 100 μL of the culture supernatant was replaced by the CellTiter-Glo reagent. After incubation for 15 minutes at room temperature, the plate was read with a luminometer.

[2] = tested on: HCT116 (human colon carcinoma) cells; assay: HCT116 cytotoxicity assay (CellTiter-Glo); format: cell-based; conditions: HCT-116, 72 h, cytotoxicity, three days culture, read-out: HCT116 IC50
[3] = tested on: HUVEC-2 (human umbilical vein endothelial cells); assay: HUVEC VEGF-dependent proliferation assay (BrdU); format: cell-based; conditions: VEGF (25 ng/mL)-dependent proliferation, read-out: HUVEC IC50
From the text: as §1
HUVEC-2 cells were seeded at 10^4 cells/well in a 96-well plate coated with 0.1% gelatin in complete medium. […] The compounds were serially diluted in DMSO, and added to the cells at 0.5% DMSO final concentration. After 2 hr, VEGF (25 ng/mL) was added; and after a further day, 5-bromo-2-deoxyuridine (BrdU, 10 μM) was added to label proliferating cells, and the cells incubated for another day. The plates were then processed using the Roche BrdU labeling and detection kit, and the VEGF-dependent antiproliferative activity of the compounds determined.

Row | SMILES | IC50 (p-H3 in HCT116 cells) [nM] | IC50 (VEGFR2 kinase) [nM] | IC50 (Aurora A kinase) [nM] | IC50 (Aurora B kinase) [nM] | IC50 [1] [nM] | IC50 [2] [nM] | IC50 [3] [nM]
1 | Cc1cc(C(F)(F)F)nc(/C(C(N)=O)=C2/Nc3ccccc3S2)n1 [Compound 8A] | 1000 | 60 | 10 | 8 | 200 | 2000 | –
2 | Cc1cc(C(F)(F)F)nc(C(C(N)=O)=C2Nc3ccccc3N2)n1 [Compound 138A] | 500 | 40 | 8 | 8 | 400 | 1000 | –
3 | COc1cc(C(F)(F)F)nc(/C(C(N)=O)=C2/Nc3ccccc3S2)n1 [Compound 6A] | 2000 | 200 | 20 | 10 | 2000 | 4000 | –
4 | NC(=O)/C(=C1\Nc2cc(F)c(Cl)cc2N1)c1nccc(C(F)(F)F)n1 [Compound 37A] | 500 | 400 | 30 | 20 | 4000 | 2000 | –
5 | NC(=O)/C(=C1\Nc2ccccc2S1)c1nc(-c2ccccn2)cc(C(F)(F)F)n1 [Compound 11A] | > 5000 | – | 40 | 10 | 3000 | 4000 | –
6 | NC(=O)/C(=C1\Nc2ccccc2S1)c1nc(N)cc(C(F)(F)F)n1 [Compound 13A] | 800 | – | 10 | 3 | 1000 | 700 | –
7 | Cn1ccnc1CCc1ccc2c(c1)S/C(=C(/C(N)=O)c1nccc(C(F)(F)F)n1)N2 [Compound 97A] | 100 | – | 20 | 7 | 1000 | 600 | –
8 | NC(=O)/C(=C1\Nc2ccc(OCCN3CCOCC3)cc2S1)c1nccc(C(F)(F)F)n1 [Compound 111A] | 400 | 100 | 20 | 9 | – | 2000 | 300

Continued, in another order:

Row | IC50 (p-H3 in HCT116 cells) [nM] | IC50 (VEGFR2 kinase) [nM] | IC50 (Aurora A kinase) [nM] | IC50 (Aurora B kinase) [nM] | SMILES | IC50 [1] [nM] | IC50 [2] [nM] | IC50 [3] [nM]
9 | 400 | 40 | 10 | 10 | NC(=O)C(=C1Nc2ccc(N)cc2S1)c1nccc(C(F)(F)F)n1 (single isomer, unassigned) [Compound 32A, 2-[6-aminobenzothiazol-2(3H)-ylidene]-2-(4-trifluoromethylpyrimidin-2-yl)acetamide] | 3000 | 5000 | –
10 | > 5000 | 200 | 90 | 20 | NC(=O)/C(=C1\Nc2ccccc2S1)c1nccc(-c2ccccc2)n1 [Compound 20A] | 600 | 8000 | –
11 | 100 | – | 3 | 5 | CCN(CCCn1ccnc1)C(=O)c1ccc2c(c1)S/C(=C(/C(N)=O)c1nccc(C(F)(F)F)n1)N2 [Compound 49A] | 1000 | 400 | –
12 | 200 | – | 20 | 5 | CCN(C(=O)CN1CCCCC1)c1ccc2c(c1)N/C(=C(/C(N)=O)c1nccc(C(F)(F)F)n1)N2 [Compound 146A] | 800 | 400 | –
13 | 100 | – | 5 | 6 | Cc1cc(C(F)(F)F)nc(C(C(N)=O)=C2Nc3ccc(NC(=O)[C@@H]4CCCN4C)cc3N2)n1 (single isomer, unassigned) [Compound 144A] | 500 | 400 | –
14 | 80 | 9 | 40 | 8 | CN(C)CCOc1ccc2c(c1)S/C(=C(/C(N)=O)c1nccc(C(F)(F)F)n1)N2 [Compound 116A] | – | 400 | 100
15 | 200 | 20 | 30 | 10 | CN(CCN1CCCCC1)c1ccc2c(c1)S/C(=C(/C(N)=O)c1nccc(C(F)(F)F)n1)N2 [Compound 125A] | – | 3000 | 600
16 | 300 | 60 | 40 | 10 | Cc1cc2c(cc1C)NC(=C(C(N)=O)c1ncc(C(=O)NCCCN3CCOCC3)c(C(F)(F)F)n1)N2 [Compound 133A] | – | 800 | 200

Reference: US8129396B2, “2-[1H-benzimidazol-2(3H)-ylidene]-2-(pyrimidin-2-yl)acetamides and 2-[benzothiazol-2(3H)-ylidene]-2-(pyrimidin-2-yl)acetamides as kinase inhibitors” (Telik, Inc., priority 2008, dated 2012)
